# According to patent publication US10597388B2, “Pyridazinone herbicides” (FMC CORPORATION, priority 2014, dated 2020):
# Legend:
# Experiment in all cases: Test D controlled growth environment herbicide test, pre- and postemergence
# Assay type in all cases: in vivo
# [1] = tested on: oat, wild (wild oat, Avena fatua)
# From the text: (§1) Seeds of plant species selected from bluegrass (annual bluegrass, Poa annua), blackgrass (Alopecurus myosuroides), Canada thistle (Cirsium arvense), canarygrass (Phalaris minor), chickweed (common chickweed, Stellaria media), geranium, cutleaf (cutleaf geranium, Geranium dissectum), galium (catchweed bedstraw, Galium aparine), bromegrass, downy (downy bromegrass, Bromus tectorum), field poppy (Papaver rhoeas), field violet (Viola arvensis), foxtail, green (green foxtail, Setaria viridis), deadnettle (henbit deadnettle, Lamium amplexicaule), ryegrass, Italian (Italian ryegrass, Lolium multiflorum), kochia (Kochia scoparia), lambsquarters (Chenopodium album), oilseed rape (Brassica napus), pigweed (Amaranthus retroflexus), chamomile (scentless chamomile, Matricaria inodora), Russian thistle (Salsola kali), speedwell (bird's-eye speedwell, Veronica persica), barley, spring (spring barley, Hordeum vulgare), wheat, spring (spring wheat, Triticum aestivum), buckwheat, wild (wild buckwheat, Polygonum convolvulus), mustard, wild (wild mustard, Sinapis arvensis), oat, wild (wild oat, Avena fatua), radish, wild (wild radish, Raphanus raphanistrum), windgrass (Apera spica-venti), barley, winter (winter barley, Hordeum vulgare), and wheat, winter (winter wheat, Triticum aestivum) were planted into a silt loam soil and treated preemergence with test chemicals formulated in a non-phytotoxic solvent mixture which included a surfactant.
# (§2) At the same time, these species were planted in pots containing Redi-Earth® planting medium (Scotts Company, 14111 Scottslawn Road, Marysville, Ohio 43041) comprising spaghnum peat moss, vermiculite, wetting agent and starter nutrients and treated with postemergence applications of the test chemicals formulated in the same manner. Plants ranged in height from 2 to 18 cm (1- to 4-leaf stage). Treated plants and controls were maintained in a controlled growth environment for 14 to 21 d after which time all species were compared to controls and visually evaluated. Plant response ratings, summarized in Table D, are based on a scale of 0 to 100 where 0 is no effect and 100 is complete control. A dash (-) response means no test result.
# [2] = tested on: speedwell (bird's-eye speedwell, Veronica persica)
# From the text: as §1, §2
# [3] = tested on: bluegrass (annual bluegrass, Poa annua)
# From the text: as §1, §2
# [4] = tested on: kochia (Kochia scoparia)
# From the text: as §1, §2
# [5] = tested on: blackgrass (Alopecurus myosuroides)
# From the text: as §1, §2
# [6] = tested on: pigweed (Amaranthus retroflexus)
# From the text: as §1, §2
# [7] = tested on: wheat, spring (spring wheat, Triticum aestivum)
# From the text: as §1, §2
# [8] = tested on: barley, winter (winter barley, Hordeum vulgare)
# From the text: as §1, §2
# [9] = tested on: barley, spring (spring barley, Hordeum vulgare)
# From the text: as §1, §2
# [10] = tested on: field poppy (Papaver rhoeas)
# From the text: as §1, §2
# [11] = tested on: radish, wild (wild radish, Raphanus raphanistrum)
# From the text: as §1, §2
# [12] = tested on: mustard, wild (wild mustard, Sinapis arvensis)
# From the text: as §1, §2
# [13] = Postemergence, 31 g ai/ha, scale 0 to 100 (0 no effect, 100 complete control)
# [14] = Postemergence, 125 g ai/ha, visual rating on scale 0 (no effect) to 100 (complete control), 14 to 21 d
# [15] = Postemergence, 250 g ai/ha, scale 0 to 100 (0 no effect, 100 complete control)
# [16] = Preemergence, 62 g ai/ha, scale 0 to 100 (0 no effect, 100 complete control)
# [17] = Preemergence, 125 g ai/ha, scale 0 to 100 (0 no effect, 100 complete control)
# [18] = Preemergence, 250 g ai/ha, scale 0 to 100, 0 no effect, 100 complete control
# [19] = postemergence, 62 g ai/ha, scale 0 to 100, 0 no effect, 100 complete control
smiles,measurement,setting,value
CCc1sc2c(C)cc(C)cc2c1-c1c(O)c(C)nn(C)c1=O [Compound 57],"Oat, Wild plant response rating",[1]; [13],15
same,"Plant response rating, Oat, Wild",[1]; [14],65
same,"Plant response rating, Oat, Wild",[1]; [15],85
same,"Plant response rating (scale of 0 to 100), Oat, Wild","[1]; Preemergence, 31 g ai/ha",15
same,"Plant response rating, Oat, Wild",[1]; [16],30
same,"Plant response rating, Oat, Wild",[1]; [17],50
same,"Plant response rating, Oat, Wild",[1]; [18],60
same,"Plant response rating, Oat, Wild",[1]; [19],25
same,Speedwell plant response rating,[2]; [13],100
same,"Plant response rating, Speedwell",[2]; [14],25
same,"Plant response rating, Speedwell",[2]; [15],100
same,"Plant response rating (scale of 0 to 100), Speedwell","[2]; Preemergence, 31 g ai/ha",25
same,"Plant response rating, Speedwell",[2]; [16],90
same,"Plant response rating, Speedwell",[2]; [17],100
same,"Plant response rating, Speedwell",[2]; [18],100
same,"Plant response rating, Speedwell",[2]; [19],15
same,Bluegrass plant response rating,[3]; [13],5
same,"Plant response rating, Bluegrass",[3]; [14],15
same,"Plant response rating, Bluegrass",[3]; [15],15
same,"Plant response rating (scale of 0 to 100), Bluegrass","[3]; Preemergence, 31 g ai/ha",0
same,"Plant response rating, Bluegrass",[3]; [16],20
same,"Plant response rating, Bluegrass",[3]; [17],25
same,"Plant response rating, Bluegrass",[3]; [18],65
same,"Plant response rating, Bluegrass",[3]; [19],15
same,Kochia plant response rating,[4]; [13],40
same,"Plant response rating, Kochia",[4]; [14],65
same,"Plant response rating, Kochia",[4]; [15],75
same,"Plant response rating (scale of 0 to 100), Kochia","[4]; Preemergence, 31 g ai/ha",10
same,"Plant response rating, Kochia",[4]; [16],10
same,"Plant response rating, Kochia",[4]; [17],35
same,"Plant response rating, Kochia",[4]; [18],100
same,"Plant response rating, Kochia",[4]; [19],55
same,Blackgrass plant response rating,[5]; [13],15
same,"Plant response rating, Blackgrass",[5]; [14],55
same,"Plant response rating, Blackgrass",[5]; [15],75
same,"Plant response rating (scale of 0 to 100), Blackgrass","[5]; Preemergence, 31 g ai/ha",25
same,"Plant response rating, Blackgrass",[5]; [16],35
same,"Plant response rating, Blackgrass",[5]; [17],70
same,"Plant response rating, Blackgrass",[5]; [18],80
same,"Plant response rating, Blackgrass",[5]; [19],45
same,Pigweed plant response rating,[6]; [13],85
same,"Plant response rating, Pigweed",[6]; [14],100
same,"Plant response rating, Pigweed",[6]; [15],100
same,"Plant response rating (scale of 0 to 100), Pigweed","[6]; Preemergence, 31 g ai/ha",70
same,"Plant response rating, Pigweed",[6]; [16],75
same,"Plant response rating, Pigweed",[6]; [17],98
same,"Plant response rating, Pigweed",[6]; [18],100
same,"Plant response rating, Pigweed",[6]; [19],85
same,"Wheat, Spring plant response rating",[7]; [13],0
same,"Plant response rating, Wheat, Spring",[7]; [14],10
same,"Plant response rating, Wheat, Spring",[7]; [15],10
same,"Plant response rating (scale of 0 to 100), Wheat, Spring","[7]; Preemergence, 31 g ai/ha",5
same,"Plant response rating, Wheat, Spring",[7]; [16],5
same,"Plant response rating, Wheat, Spring",[7]; [17],5
same,"Plant response rating, Wheat, Spring",[7]; [18],10
same,"Plant response rating, Wheat, Spring",[7]; [19],10
same,"Barley, Winter plant response rating",[8]; [13],20
same,"Plant response rating, Barley, Winter",[8]; [14],25
same,"Plant response rating, Barley, Winter",[8]; [15],25
same,"Plant response rating (scale of 0 to 100), Barley, Winter","[8]; Preemergence, 31 g ai/ha",0
same,"Plant response rating, Barley, Winter",[8]; [16],0
same,"Plant response rating, Barley, Winter",[8]; [17],5
same,"Plant response rating, Barley, Winter",[8]; [18],5
same,"Plant response rating, Barley, Winter",[8]; [19],30
same,"Barley, Spring plant response rating",[9]; [13],10
same,"Plant response rating, Barley, Spring",[9]; [14],10
same,"Plant response rating, Barley, Spring",[9]; [15],10
same,"Plant response rating (scale of 0 to 100), Barley, Spring","[9]; Preemergence, 31 g ai/ha",5
same,"Plant response rating, Barley, Spring",[9]; [16],10
same,"Plant response rating, Barley, Spring",[9]; [17],10
same,"Plant response rating, Barley, Spring",[9]; [18],10
same,"Plant response rating, Barley, Spring",[9]; [19],10
same,Field Poppy plant response rating,[10]; [13],100
same,"Plant response rating, Field Poppy",[10]; [14],100
same,"Plant response rating, Field Poppy",[10]; [15],100
same,"Plant response rating (scale of 0 to 100), Field Poppy","[10]; Preemergence, 31 g ai/ha",100
same,"Plant response rating, Field Poppy",[10]; [16],100
same,"Plant response rating, Field Poppy",[10]; [17],100
same,"Plant response rating, Field Poppy",[10]; [18],100
same,"Plant response rating, Field Poppy",[10]; [19],100
same,"Radish, Wild plant response rating",[11]; [13],40
same,"Plant response rating, Radish, Wild",[11]; [14],100
same,"Plant response rating, Radish, Wild",[11]; [15],90
same,"Plant response rating (scale of 0 to 100), Radish, Wild","[11]; Preemergence, 31 g ai/ha",0
same,"Plant response rating, Radish, Wild",[11]; [16],10
same,"Plant response rating, Radish, Wild",[11]; [17],25
same,"Plant response rating, Radish, Wild",[11]; [18],100
same,"Plant response rating, Radish, Wild",[11]; [19],100
same,"Mustard, Wild plant response rating",[12]; [13],30
same,"Plant response rating, Mustard, Wild",[12]; [14],30
same,"Plant response rating, Mustard, Wild",[12]; [15],40
same,"Plant response rating (scale of 0 to 100), Mustard, Wild","[12]; Preemergence, 31 g ai/ha",0
same,"Plant response rating, Mustard, Wild",[12]; [16],25
same,"Plant response rating, Mustard, Wild",[12]; [17],25
same,"Plant response rating, Mustard, Wild",[12]; [18],30
same,"Plant response rating, Mustard, Wild",[12]; [19],30
